Experimental data: ChEMBL document CHEMBL1201862, “PubChem BioAssay data set” (2004)
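Each compound was tested at five concentrations against cells in 96-well plates for 48 hours. Here, GI50 denotes the concentration required for 50% inhibition of growth.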 Calls of active or inactive are those of the source. No stated cut-off is given here; in the data, active = GI50 up to about 1.1 µM and inactive = higher.

Columns and labels:
Experiment in all cases: DTP human tumour cell line panel, 48 h
[1] = tested on: SNB-19
[2] = tested on: UO-31
[3] = tested on: A549
[4] = tested on: EKVX
[5] = tested on: NCI-H226
[6] = tested on: Hs-578T
[7] = tested on: ACHN
[8] = tested on: NCI-H522
[9] = tested on: OVCAR-8
[10] = tested on: SF-295
[11] = tested on: HOP-62
[12] = tested on: OVCAR-5
[13] = tested on: SK-MEL-5
[14] = tested on: MDA-N
[15] = tested on: KM12
[16] = tested on: CAKI-1
[17] = tested on: OVCAR-3
[18] = tested on: UACC-62
[19] = tested on: HOP-92
[20] = tested on: MCF7
[21] = tested on: Malme-3M
[22] = tested on: K562
[23] = tested on: RXF 393
[24] = tested on: MOLT-4
[25] = tested on: MDA-MB-435
[26] = tested on: SF-539
[27] = tested on: TK-10
[28] = tested on: A498
[29] = tested on: BT-549
[30] = tested on: HCT-116
[31] = tested on: NCI-H460
[32] = tested on: HCT-15
[33] = tested on: SK-OV-3
[34] = tested on: MDA-MB-231
[35] = tested on: SNB-75
[36] = tested on: PC-3
[37] = tested on: HCC 2998
[38] = tested on: HT-29
[39] = tested on: M14
[40] = tested on: SR
[41] = tested on: HL-60
[42] = tested on: OVCAR-4
[43] = tested on: NCI/ADR-RES
[44] = tested on: NCI-H23
[45] = tested on: U-251
[46] = tested on: SW-620
[47] = tested on: DU-145
[48] = tested on: 786-0
[49] = tested on: COLO 205
[50] = tested on: SK-MEL-2
[51] = tested on: UACC-257
[52] = tested on: T47D
[53] = tested on: SK-MEL-28
[54] = tested on: CCRF-CEM
[55] = tested on: SF-268
[56] = tested on: LOX IMVI
[57] = tested on: SN12C
[58] = tested on: IGROV-1
[59] = tested on: RPMI-8226

Structure (SMILES): COc1cccc(N2C(=O)CSC2c2cccc(Oc3ccccc3)c2)c1 (centres undefined)
- GI50 [1]: 8.41 µM (inactive)
- GI50 [2]: 9.66 µM (inactive)
- GI50 [3]: 9.53 µM (inactive)
- GI50 [4]: 13.8 µM (inactive)
- GI50 [5]: 8.32 µM (inactive)
- GI50 [6]: 5.78 µM (inactive)
- GI50 [7]: 6.17 µM (inactive)
- GI50 [8]: 3.34 µM (inactive)
- GI50 [9]: 8.69 µM (inactive)
- GI50 [10]: 6.32 µM (inactive)
- GI50 [11]: 9.38 µM (inactive)
- GI50 [12]: 18.5 µM (inactive)
- GI50 [13]: 4.36 µM (inactive)
- GI50 [14]: 1.89 µM (inactive)
- GI50 [15]: 4.35 µM (inactive)
- GI50 [16]: 2.03 µM (inactive)
- GI50 [17]: 4.79 µM (inactive)
- GI50 [18]: 3.21 µM (inactive)
- GI50 [19]: 6.21 µM (inactive)
- GI50 [20]: 2.48 µM (inactive)
- GI50 [21]: 9.02 µM (inactive)
- GI50 [22]: 3.42 µM (inactive)
- GI50 [23]: 7.03 µM (inactive)
- GI50 [24]: 3.88 µM (inactive)
- GI50 [25]: 2.81 µM (inactive)
- GI50 [26]: 4.27 µM (inactive)
- GI50 [27]: 4.45 µM (inactive)
- GI50 [28]: 3.94 µM (inactive)
- GI50 [29]: 12.3 µM (inactive)
- GI50 [30]: 3.61 µM (inactive)
- GI50 [31]: 3.33 µM (inactive)
- GI50 [32]: 4.21 µM
- GI50 [33]: 16.1 µM (inactive)
- GI50 [34]: 7.78 µM (inactive)
- GI50 [35]: 3.9 µM (inactive)
- GI50 [36]: 5.3 µM (inactive)
- GI50 [37]: 3.14 µM (inactive)
- GI50 [38]: 4.28 µM (inactive)
- GI50 [39]: 4.79 µM (inactive)
- GI50 [40]: 3.79 µM (inactive)
- GI50 [41]: 4.39 µM (inactive)
- GI50 [42]: 10.3 µM (inactive)
- GI50 [43]: 3.61 µM (inactive)
- GI50 [44]: 11.5 µM (inactive)
- GI50 [45]: 5.22 µM (inactive)
- GI50 [46]: 4.8 µM (inactive)
- GI50 [47]: 20.4 µM (inactive)
- GI50 [48]: 6.47 µM (inactive)
- GI50 [49]: 3.37 µM (inactive)
- GI50 [50]: 4.28 µM (inactive)
- GI50 [51]: 3.08 µM (inactive)
- GI50 [52]: 9.04 µM (inactive)
- GI50 [53]: 19 µM (inactive)
- GI50 [54]: 9.33 µM (inactive)
- GI50 [55]: 6.79 µM (inactive)
- GI50 [56]: 6.87 µM (inactive)
- GI50 [57]: 7.98 µM (inactive)

Structure (SMILES): CC(C)C(C/C=C1\CC(CO)(COC(=O)CC(C(C)C)C(C)C)OC1=O)C(C)C (centres undefined)
- GI50 [1]: 13.3 µM (inactive)
- GI50 [2]: 6.87 µM (inactive)
- GI50 [3]: 3.72 µM (inactive)
- GI50 [4]: 10 µM (inactive)
- GI50 [5]: 9.04 µM (inactive)
- GI50 [6]: 3.8 µM (inactive)
- GI50 [7]: 10.3 µM (inactive)
- GI50 [8]: 13.8 µM (inactive)
- GI50 [9]: 17.9 µM (inactive)
- GI50 [10]: 4.62 µM (inactive)
- GI50 [11]: 5.08 µM (inactive)
- GI50 [12]: 13.9 µM (inactive)
- GI50 [13]: 11 µM (inactive)
- GI50 [14]: 2.96 µM (inactive)
- GI50 [15]: 14.2 µM (inactive)
- GI50 [16]: 6.87 µM (inactive)
- GI50 [17]: 15.6 µM (inactive)
- GI50 [18]: 15.1 µM (inactive)
- GI50 [19]: 0.902 µM (active)
- GI50 [20]: 15.7 µM (inactive)
- GI50 [21]: 1.45 µM (inactive)
- GI50 [22]: 1.36 µM (inactive)
- GI50 [23]: 14.5 µM (inactive)
- GI50 [24]: 1.05 µM (active)
- GI50 [25]: 7.06 µM (inactive)
- GI50 [26]: 18.3 µM (inactive)
- GI50 [27]: 7.31 µM (inactive)
- GI50 [28]: 11.7 µM (inactive)
- GI50 [29]: 14.6 µM (inactive)
- GI50 [30]: 14.1 µM (inactive)
- GI50 [31]: 4.07 µM (inactive)
- GI50 [32]: 18.5 µM
- GI50 [33]: 17.7 µM (inactive)
- GI50 [34]: 12.8 µM (inactive)
- GI50 [35]: 10.4 µM (inactive)
- GI50 [36]: 11.7 µM (inactive)
- GI50 [37]: 5.96 µM (inactive)
- GI50 [38]: 17.7 µM (inactive)
- GI50 [39]: 11.7 µM (inactive)
- GI50 [40]: 12.4 µM (inactive)
- GI50 [41]: 2.74 µM (inactive)
- GI50 [42]: 17.6 µM (inactive)
- GI50 [43]: 16 µM (inactive)
- GI50 [44]: 15 µM (inactive)
- GI50 [45]: 13.8 µM (inactive)
- GI50 [46]: 7.46 µM (inactive)
- GI50 [47]: 8.85 µM (inactive)
- GI50 [48]: 7.03 µM (inactive)
- GI50 [49]: 1.49 µM (inactive)
- GI50 [50]: 20.9 µM (inactive)
- GI50 [51]: 15.6 µM (inactive)
- GI50 [58]: 14.7 µM (inactive)
- GI50 [52]: 13.3 µM (inactive)
- GI50 [53]: 14.9 µM (inactive)
- GI50 [54]: 4.06 µM (inactive)
- GI50 [55]: 14.2 µM (inactive)
- GI50 [56]: 12.6 µM (inactive)
- GI50 [57]: 9.1 µM (inactive)

Structure (SMILES): Cc1ccnc2nc3[nH]c4ccccc4c3cc12
- GI50 [2]: > 100 µM (inactive)
- GI50 [3]: > 100 µM (inactive)
- GI50 [4]: > 100 µM (inactive)
- GI50 [5]: > 100 µM (inactive)
- GI50 [6]: > 100 µM (inactive)
- GI50 [7]: > 100 µM (inactive)
- GI50 [8]: > 100 µM (inactive)
- GI50 [9]: 66.8 µM (inactive)
- GI50 [10]: > 100 µM (inactive)
- GI50 [11]: 75.7 µM (inactive)
- GI50 [12]: > 100 µM (inactive)
- GI50 [13]: > 100 µM (inactive)
- GI50 [14]: > 100 µM (inactive)
- GI50 [15]: > 100 µM (inactive)
- GI50 [16]: > 100 µM (inactive)
- GI50 [17]: > 100 µM (inactive)
- GI50 [18]: > 100 µM (inactive)
- GI50 [19]: > 100 µM (inactive)
- GI50 [20]: > 100 µM (inactive)
- GI50 [22]: > 100 µM (inactive)
- GI50 [23]: > 100 µM (inactive)
- GI50 [59]: > 100 µM (inactive)
- GI50 [24]: > 100 µM (inactive)
- GI50 [25]: > 100 µM (inactive)
- GI50 [26]: > 100 µM (inactive)
- GI50 [27]: > 100 µM (inactive)
- GI50 [28]: > 100 µM (inactive)
- GI50 [29]: 48 µM (inactive)
- GI50 [30]: > 100 µM (inactive)
- GI50 [31]: > 100 µM (inactive)
- GI50 [32]: > 100 µM
- GI50 [34]: > 100 µM (inactive)
- GI50 [35]: 22 µM (inactive)
- GI50 [36]: > 100 µM (inactive)
- GI50 [37]: > 100 µM (inactive)
- GI50 [38]: > 100 µM (inactive)
- GI50 [39]: > 100 µM (inactive)
- GI50 [40]: 71.1 µM (inactive)
- GI50 [42]: > 100 µM (inactive)
- GI50 [43]: > 100 µM (inactive)
- GI50 [44]: > 100 µM (inactive)
- GI50 [45]: 39.1 µM (inactive)
- GI50 [46]: > 100 µM (inactive)
- GI50 [47]: > 100 µM (inactive)
- GI50 [48]: 24.4 µM (inactive)
- GI50 [49]: > 100 µM (inactive)
- GI50 [50]: > 100 µM (inactive)
- GI50 [51]: 89.5 µM (inactive)
- GI50 [58]: > 100 µM (inactive)
- GI50 [52]: > 100 µM (inactive)
- GI50 [54]: 75 µM (inactive)
- GI50 [55]: > 100 µM (inactive)
- GI50 [56]: > 100 µM (inactive)
- GI50 [57]: > 100 µM (inactive)
